The values below are quoted from earlier work in patent publication US20230175068A1, “PROGNOSIS METHOD OF ACUTE MYELOID LEUKAEMIA” (CENTRE NATIONAL DE LA RECHERCHE SCIENTIFIQUE, priority 2020, published 2023).

Read-outs that look alike come from different tables or passages of the source.

The data set has as its system AML cell lines.

`O=C(c1cc(Cc2n[nH]c(=O)c3ccccc23)ccc1F)N1CCN(C(=O)C2CC2)CC1` [Olaparib]: under “Drug sensitivity AUC (Sanger GDSC1)”, the T-Statistic is on record as -3.795.

For the compound `O=C1NC(=O)c2c1c(-c1ccccc1Cl)cc1[nH]c3ccc(O)cc3c21` [Wee1 Inhibitor], where the note is “Drug sensitivity AUC (Sanger GDSC2)”, the T-Statistic is on record as -4.966.
